Results published in patent publication US20250074910A1, “MENIN INHIBITOR AND USE THEREOF” (HITGEN INC., priority 2021, published 2025).

Each compound was assayed against Menin/MLL-4-43 peptide interaction (Homo sapiens (Human), UniProt O00255) (assay: Menin-MLL interaction inhibitory activity assay (fluorescence polarization competition)). Conditions: FITC-MLL4-43-peptide, Menin recombinant protein.
Assay type: binding
Protocol: Test Example 1: Menin-MLL Interaction Inhibitory Activity Assay
The inhibition of Menin/MLL-4-43 peptide interaction by small molecule inhibitors was quantitatively detected by fluorescence polarization competition assay. The experiment was performed in a 384-well plate (Corning, Cat #3575) using a reaction buffer consisting of 50 mM Tris, pH 7.5, 50 mM NaCl, and 1 mM DTT. A 40 μL reaction system included 10 μL of 8 nM Menin recombinant protein and 10 μL of the test compound at different concentrations. The compound was pre-incubated with Menin protein for 15 min, and then 20 μL of 10 nM FITC-MLL4-43-peptide was added. After incubation on a shaker at 25° C. for 60 min, the fluorescence polarization signal (FP 485 520 520) was read using BMG PHERAStar detection. The experimental data was analyzed and processed by GraphPad Prism 6 software to obtain the IC50 value. The control compound 1 was prepared by referring to the method of Example 64 in WO2017214367.

Sequence of Menin/MLL-4-43 peptide interaction (O00255 whole entry, species assumed): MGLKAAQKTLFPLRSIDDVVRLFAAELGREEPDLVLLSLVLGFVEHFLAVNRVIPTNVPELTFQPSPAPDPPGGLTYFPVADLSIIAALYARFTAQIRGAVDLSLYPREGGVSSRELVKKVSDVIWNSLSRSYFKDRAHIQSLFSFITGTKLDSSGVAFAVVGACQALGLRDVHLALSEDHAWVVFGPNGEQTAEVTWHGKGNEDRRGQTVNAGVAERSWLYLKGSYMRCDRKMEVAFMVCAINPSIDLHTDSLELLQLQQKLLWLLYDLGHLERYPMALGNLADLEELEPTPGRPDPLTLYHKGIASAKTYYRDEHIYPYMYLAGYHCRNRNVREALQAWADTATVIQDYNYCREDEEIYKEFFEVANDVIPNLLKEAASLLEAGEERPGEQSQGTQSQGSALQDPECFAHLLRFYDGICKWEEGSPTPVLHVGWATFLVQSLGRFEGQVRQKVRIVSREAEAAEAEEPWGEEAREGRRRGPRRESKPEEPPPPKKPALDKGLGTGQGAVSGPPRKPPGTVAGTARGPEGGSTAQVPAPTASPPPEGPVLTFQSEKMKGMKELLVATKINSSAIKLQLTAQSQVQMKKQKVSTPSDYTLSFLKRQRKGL

Going from `CC(C)N(C(=O)c1cc(F)ccc1Oc1cncnc1N1CC2(CCN(CC3CC4CCC3CC43COC(=O)N3)CC2)C1)C(C)C` (single isomer, unassigned) [Example 51-2] to `CC(C)N(C(=O)c1cc(F)ccc1Oc1cncnc1N1CC2(CCN(C[C@H]3CC[C@]4(CC3)CC(C)(C)C(=O)N4)CC2)C1)C1CCC1` [Example 25], the IC50 falls from 47.6 nM to 31.2 nM (1.5-fold). The second is the more potent here.

First: CC(C)N(C(=O)c1cc(F)ccc1Oc1nncnc1N1CC2(CCN(C[C@H]3CC[C@]4(CC3)CC(C(C)(C)O)C(=O)N4)CC2)C1)C(C)C (single isomer, unassigned) [Example 59-1a]
Second: CC(C)N(C(=O)c1cc(F)ccc1Oc1nncnc1N1CC2(CCN(C[C@H]3CC[C@]4(CC3)CC(C)(C)C(=O)N4)CC2)C1)C1CC1 [Example 30]
The IC50 of the first is 4.2-fold lower: 7.8 nM for the first, 33 nM for the second. The first is the more potent here.

With `CC(C)N(C(=O)c1cc(F)ccc1Oc1nncnc1N1CC2(CCN(C[C@H]3CC[C@]4(CC3)CC(C)(C)C(=O)N4)CC2)C1)C1CCC1` [Example 32] the IC50 was 39.3 nM.

The compounds below were run on OCI-AML3 (assay: Cell proliferation inhibition (CellTiter-Glo), OCI-AML3 (NPM1 mutation)). Conditions: Homo sapiens, OCI-AML-3, 168 h, OCI-AML3 cells.
Assay type: cell-based
Protocol: (§1) Test Example 2: Test of the Inhibitory Ability of Menin-MLL Interaction Inhibitors on Cell Proliferation
(§2) The inhibitory ability of the compounds of the present disclosure on the proliferation of tumor cell lines (including cell lines containing MLL fusion protein such as MV4-11, MOLM-13, THP-1 and NOMO-1, control cell lines without MLL fusion protein such as HL-60, K562 and MOLM-16, and cell lines containing NPM1 mutation such as OCI-AML3) was evaluated by using the cell viability analysis method. The cells were plated in 96-well plates at a certain concentration (e.g., 5,000-20,000 cells/well), and then an equal volume of culture medium containing 2 times the final concentration of the test compound (the final concentration ranging 10 from 1 nM to 10 μM) was added. The plates were placed in an incubator and cultured at 37° C. and 5% CO2 for 72-168 h. Before the test, an equal volume of CellTiter-Glo® Luminescent reagent was added, and the plate was incubated at room temperature for 10 min before detection using an ELISA reader (BMG LABTECH). The data were analyzed using GraphPad Prism software to obtain the IC50 value and compound fitting curve. The control compound 1 was prepared by referring to the method of Example 64 in WO2017214367.

Going from `CC(C)N(C(=O)c1cc(F)ccc1Oc1nncnc1N1CC2(CCN(C[C@H]3CC[C@]4(CC3)CC(C(C)(C)O)C(=O)N4)CC2)C1)C(C)C` (single isomer, unassigned) [Example 59-1a] to `CC(C)N(C(=O)c1cc(F)ccc1Oc1nncnc1N1CC2(CCN(C[C@H]3CC[C@]4(CC3)CC(C)(C)C(=O)N4)CC2)C1)C1CC1` [Example 30], the GI50 rises from 18.5 nM to 52 nM (2.8-fold).

`CC(C)N(C(=O)c1cc(F)ccc1Oc1cncnc1N1CC2(CCN(C[C@H]3CC[C@]4(CC3)CC(C)(C)C(=O)N4)CC2)C1)C1CCC1` [Example 25] and `CC(C)N(C(=O)c1cc(F)ccc1Oc1nncnc1N1CC2(CCN(C[C@H]3CC[C@]4(CC3)CC(C)(C)C(=O)N4)CC2)C1)C1CCC1` [Example 32] are within 1.5-fold of each other in GI50: 64.3 nM for the first, 63.6 nM for the second.

Same assay, conditions: OCI-AML3 cells, 168 h

For `CC(C)N(C(=O)c1cc(F)ccc1Oc1cncnc1N1CC2(CCN(CC3CC4CCC3CC43COC(=O)N3)CC2)C1)C(C)C` (single isomer, unassigned) [Example 51-2], the GI50 was 35.3 nM.

Each compound was assayed on MV4-11 (assay: Cell proliferation inhibition (CellTiter-Glo), MV4-11). Conditions: Homo sapiens, MV4-11, 72 h, MV4-11 cells.
Assay type: cell-based
Protocol: as §1, §2

Going from `CC(C)N(C(=O)c1cc(F)ccc1Oc1nncnc1N1CC2(CCN(C[C@H]3CC[C@]4(CC3)CC(C(C)(C)O)C(=O)N4)CC2)C1)C(C)C` (single isomer, unassigned) [Example 59-1a] to `CC(C)N(C(=O)c1cc(F)ccc1Oc1nncnc1N1CC2(CCN(C[C@H]3CC[C@]4(CC3)CC(C)(C)C(=O)N4)CC2)C1)C1CC1` [Example 30], the GI50 rises from 9.6 nM to 35.2 nM (3.7-fold).

Compared with `CC(C)N(C(=O)c1cc(F)ccc1Oc1cncnc1N1CC2(CCN(C[C@H]3CC[C@]4(CC3)CC(C)(C)C(=O)N4)CC2)C1)C1CCC1` [Example 25], `CC(C)N(C(=O)c1cc(F)ccc1Oc1nncnc1N1CC2(CCN(C[C@H]3CC[C@]4(CC3)CC(C)(C)C(=O)N4)CC2)C1)C1CCC1` [Example 32] is 2.6-fold higher in GI50: 6.9 nM for the first, 17.8 nM for the second.

Same assay, conditions: MV4-11 cells, 72 h

`CC(C)N(C(=O)c1cc(F)ccc1Oc1cncnc1N1CC2(CCN(CC3CC4CCC3CC43COC(=O)N3)CC2)C1)C(C)C` (single isomer, unassigned) [Example 51-2] gave a GI50 of 18.8 nM.

What follows are compounds tested on MOLM-13 (assay: Cell proliferation inhibition (CellTiter-Glo), MOLM-13). Conditions: Homo sapiens, MOLM-13, 168 h, MOLM-13 cells.
Assay type: cell-based
Protocol: as §1, §2

Compared with `CC(C)N(C(=O)c1cc(F)ccc1Oc1nncnc1N1CC2(CCN(C[C@H]3CC[C@]4(CC3)CC(C(C)(C)O)C(=O)N4)CC2)C1)C(C)C` (single isomer, unassigned) [Example 59-1a], `CC(C)N(C(=O)c1cc(F)ccc1Oc1nncnc1N1CC2(CCN(C[C@H]3CC[C@]4(CC3)CC(C)(C)C(=O)N4)CC2)C1)C1CC1` [Example 30] is 5.4-fold higher in GI50: 36.2 nM for the first, 197 nM for the second.

Compared with `CC(C)N(C(=O)c1cc(F)ccc1Oc1cncnc1N1CC2(CCN(C[C@H]3CC[C@]4(CC3)CC(C)(C)C(=O)N4)CC2)C1)C1CCC1` [Example 25], `CC(C)N(C(=O)c1cc(F)ccc1Oc1nncnc1N1CC2(CCN(C[C@H]3CC[C@]4(CC3)CC(C)(C)C(=O)N4)CC2)C1)C1CCC1` [Example 32] is 2.1-fold higher in GI50: 86.3 nM for the first, 179 nM for the second.

Same assay, conditions: MOLM-13 cells, 168 h

Work on `CC(C)N(C(=O)c1cc(F)ccc1Oc1cncnc1N1CC2(CCN(CC3CC4CCC3CC43COC(=O)N3)CC2)C1)C(C)C` (single isomer, unassigned) [Example 51-2] yielded a GI50 of 93.3 nM.
